# Experimental data from ChEMBL document CHEMBL5233290, “Anulamycins A-F, Cinnamoyl-Containing Peptides from a Lake Sediment Derived Streptomyces” (J Nat Prod, 2023).
# Tests used:
# [1] = system: Staphylococcus epidermidis; assay: Antibacterial activity against Staphylococcus epidermidis ATCC12228 assessed as inhibition of bacterial growth incubated for 18 hrs by 2-fold serial dilution method; conditions: ATCC12228, 18 h
# Bacillus subtilis = assay: Antibacterial activity against Bacillus subtilis E168 assessed as inhibition of bacterial growth incubated for 18 hrs by 2-fold serial dilution method; format: functional
# Staphylococcus aureus = assay: Antibacterial activity against Staphylococcus aureus ATCC 43300 assessed as inhibition of bacterial growth incubated for 18 hrs by 2-fold serial dilution method; format: functional
# Escherichia coli = assay: Antibacterial activity against Escherichia coli ATCC35218 assessed as inhibition of bacterial growth incubated for 18 hrs by 2-fold serial dilution method; format: functional
# K562 = assay: Cytotoxicity against human K562 cells assessed as reduction in cell viability incubated for 72 hrs by CCK8 assay; format: functional, cell-based; conditions: K562, 72 h
# A549 = assay: Cytotoxicity against human A549 cells assessed as reduction in cell viability incubated for 72 hrs by CCK8 assay; format: functional, cell-based; conditions: A549, 72 h
Compound,MIC [1] [µM],MIC (Bacillus subtilis) [µM],MIC (Staphylococcus aureus) [µM],MIC (Escherichia coli) [µM],IC50 (K562) [µM],IC50 (A549) [µM]
C/C=C\c1ccccc1/C=C/C(=O)N[C@@H]1C(=O)N[C@@H](C)C(=O)N[C@@H]([C@H](C)C(=O)O)C(=O)NCC(=O)N[C@@H]([C@@H](O)c2ccccc2)C(=O)N2CCC[C@H]2C(=O)N[C@@H]([C@@H](O)c2ccc(OC)cc2)C(=O)N[C@H](Cc2c[nH]c3ccccc23)C(=O)N[C@@H](O)C(=O)N[C@H](CC(C)C)C(=O)N[C@H]([C@@H](O)C(C)C)C(=O)O[C@@H]1C,32,16,16,> 128,> 10,> 10
C/C=C\c1ccccc1/C=C/C(=O)N[C@@H]1C(=O)N[C@@H](C)C(=O)N[C@@H](CC(=O)O)C(=O)NCC(=O)N[C@@H]([C@@H](O)c2ccccc2)C(=O)N2CCC[C@H]2C(=O)N[C@@H]([C@@H](O)c2ccc(OC)cc2)C(=O)N[C@H](Cc2c[nH]c3ccccc23)C(=O)N[C@@H](O)C(=O)N[C@H](CC(C)C)C(=O)N[C@H]([C@@H](O)C(C)C)C(=O)O[C@@H]1C,64,48,32,> 128,> 10,> 10
C/C=C\c1ccccc1/C=C/C(=O)N[C@H](C(=O)N[C@@H](C)C(=O)N[C@H](C(N)=O)[C@H](C)C(=O)N1CC(=O)N[C@@H]([C@@H](O)c2ccccc2)C(=O)N2CCC[C@H]2C(=O)N[C@@H]([C@@H](O)c2ccc(OC)cc2)C(=O)N[C@H](Cc2c[nH]c3ccccc23)C1=O)[C@@H](C)O,64,32,32,> 128,> 10,> 10
C/C=C\c1ccccc1/C=C/C(=O)N/C(=C\C)C(=O)N[C@@H](C)C(=O)N[C@H](C(N)=O)[C@H](C)C(=O)N1CC(=O)N[C@@H]([C@@H](O)c2ccccc2)C(=O)N2CCC[C@H]2C(=O)N[C@@H]([C@@H](O)c2ccc(OC)cc2)C(=O)N[C@H](Cc2c[nH]c3ccccc23)C1=O,16,16,16,> 128,> 10,> 10
C/C=C\c1ccccc1/C=C/C(=O)N[C@H](C(=O)N[C@@H](C)C(=O)N[C@@H](CC(=O)N1CC(=O)N[C@@H]([C@@H](O)c2ccccc2)C(=O)N2CCC[C@H]2C(=O)N[C@@H]([C@@H](O)c2ccc(OC)cc2)C(=O)N[C@H](Cc2c[nH]c3ccccc23)C1=O)C(N)=O)[C@@H](C)O,128,64,64,> 128,> 10,> 10
C/C=C\c1ccccc1/C=C\C(=O)N[C@H](C(=O)N[C@@H](C)C(=O)N[C@H](C(N)=O)[C@H](C)C(=O)N1CC(=O)N[C@@H]([C@@H](O)c2ccccc2)C(=O)N2CCC[C@H]2C(=O)N[C@@H]([C@@H](O)c2ccc(OC)cc2)C(=O)N[C@H](Cc2c[nH]c3ccccc23)C1=O)[C@@H](C)O,64,64,32,> 128,> 10,> 10
C/C=C\c1ccccc1/C=C\C(=O)N[C@H](C(=O)N[C@@H](C)C(=O)N[C@@H](CC(=O)O)C(=O)NCC(=O)N[C@H](C(=O)N1CCC[C@H]1C(=O)N[C@H](C(=O)N[C@H](Cc1c[nH]c2ccccc12)C(N)=O)[C@@H](O)c1ccc(OC)cc1)[C@@H](O)c1ccccc1)[C@@H](C)O,> 128,> 128,64,> 128,> 10,> 10
C/C=C\c1ccccc1/C=C/C(=O)N[C@H](C(=O)N[C@@H](C)C(=O)N[C@@H](CC(=O)O)C(=O)NCC(=O)N[C@H](C(=O)N1CCC[C@H]1C(=O)N[C@H](C(=O)N[C@H](Cc1c[nH]c2ccccc12)C(N)=O)[C@@H](O)c1ccc(OC)cc1)[C@@H](O)c1ccccc1)[C@@H](C)O,> 128,> 128,64,> 128,> 10,> 10
NC[C@H]1O[C@H](O[C@H]2[C@H](O)[C@@H](O[C@H]3O[C@H](CO)[C@@H](O)[C@H](N)[C@H]3O)[C@H](N)C[C@@H]2N)[C@H](O)[C@@H](O)[C@@H]1O [KANAMYCIN],< 2,< 2,< 2,< 2,,
